Where “and” joins values, the source holds several entries; their conditions need not be identical. Equal values may be shown once. Read-outs that look alike come from different tables or passages of the source.
Key:
OATP = details: cited from earlier work
[1] = Analysis of individual clinical CPI and rosuvastatin data (baseline, AUCR, fT); format: in vivo, human; details: for mean fraction eliminated via transporters (fT): from AUC with/without RIF (Equation 1)
Description: (§1) Individual plasma and urine data were obtained from a previous study in 12 healthy male subjects.6 The study was split into three occasions (OCC1–3) with a 7‐day washout period between OCC1 and 2 and OCC2 and 3. During each occasion, baseline CPI urine and plasma samples were collected (Figure S2). A single 600‐mg oral dose of RIF and a single 5‐mg oral dose of RSV were administered to the volunteers in OCC1 and OCC2, respectively. Finally, in OCC3 the same respective doses of RIF and RSV were coadministered to healthy volunteers. Plasma (RIF, RSV, and CPI) were collected at predefined timepoints over the 24‐h period following administration of RIF and/or RSV. Urine samples were collected over one time interval (−7 to 0 h) for the pretreatment sample (CPI monitored) and two subsequent intervals (0–7 h and 7–24 h) for posttreatment samples of CPI and RSV. The total number of plasma samples for modeling purposes were 276 (OCC1 = 144, OCC3 = 132), 420 (OCC1 = 144, OCC2 = 144, OCC3 = 132), and 264 (OCC2 = 132, OCC3 = 132) for RIF, CPI, and RSV, respectively, whereas the total number of urine samples were 102 (pretreatment = 34, posttreatment = 68) and 44 for CPI and RSV, respectively. No subjects enrolled in the clinical study had OATP1B1*5 or OATP1B1*15 mutations, associated with altered OATP1B1 activity.
Variability in baseline CPI plasma concentration between the three occasions was assessed and a one‐way analysis of variance (ANOVA) test was used to determine any significant differences. CPI and RSV plasma concentrations in the presence/absence of RIF were used to calculate the area under the curve (AUC) using the trapezoid function in MATLAB (MathWorks, Natick, MA, 2015a). Subsequently, the fold change in RSV and CPI AUC of each individual and the fraction eliminated by transporters (fT) for each probe was calculated (Equation 1). (1) fT=1−AUC(control)/AUC(+inhibitor)

[2] = Population PK model of rosuvastatin plasma and urine data with/without rifampicin; format: in vivo, human
Description: as §1
(§2) Population PK models were developed sequentially for analysis of RIF, CPI, and RSV plasma and urine data using nonlinear mixed‐effects modeling software, NONMEM, with first‐order conditional estimation method.32 Statistical analysis, GOF plots, and other graphical analysis were conducted in MATLAB. The structural models for RIF and RSV (Supplementary Material) were selected based on population PK models available in the literature.34, 35 An exponential model was used to describe interindividual variability random‐effects parameters and IOV was evaluated for the model parameters; occasions were defined as periods of different visits following recruitment or washout periods. Covariates and random‐effects parameters (IIV and IOV) were retained in the models when there was a significant change in objective function and improvement in GOF plots. The incorporation of IIV and IOV in the models is shown in Equation 2: (2) θik=θ⋅e^ηi+κik where θ ik is the parameter for i^th individual on k^th occasion, θ is the population (typical individual) parameter, η i is the parameter that describes the deviation of the i^th individual parameter from the population (IIV), and k ik the parameter that describes the deviation of the i^th individual from the population in addition to η ik at the k^th occasion (IOV). Both random effect parameters (η ik and k ik) are assumed to be randomly distributed with a mean of zero and the variances are estimated during analysis. Proportional or additive or combination of proportional and additive residual error models were investigated for the residuals.
Based on the available plasma and urine data, a two compartment first order absorption and elimination model was used to describe the PK of RSV in the subjects. The model was parameterised using [picture] , volume of distribution of central ( [picture] ) and peripheral compartments ( [picture] ), inter-compartmental clearance ( [picture] ), biliary ( [picture] ) and renal ( [picture] ) clearance parameters. Analogous to CPI, inhibition of [picture] by RIF was incorporated in the rate of change of RSV plasma concentration, whereas it was assumed that RIF has no effect on RSV renal elimination (Eq 2). The rate of change of RSV amount in urine over time is shown in Eq3.
where [picture] and [picture] are RSV concentrations in central (plasma) and peripheral compartments, [picture] is the amount in depot compartment, [picture] is RSV amount in the urine and [picture] is RIF transporter inhibition constant using RSV as a probe. […]

[3] = Population PK (turnover) model of CPI plasma and urine data with/without rifampicin; format: in vivo, human
Description: as §1, §2
The plasma concentrations of the endogenous biomarker CPI were described using a turnover model (Equation 3).36 Simultaneous fitting of individual CPI plasma and urine data in the presence and absence of RIF was performed. In the final model, RIF inhibited biliary elimination (CL b,CPI) of CPI, whereas its renal clearance (CL R,CPI) and k syn were not affected. The rate of change of CPI plasma concentration under baseline and RIF condition is shown in Equations 3 and 4, respectively, whereas change in CPI amount in urine over time is shown in Equation 5. (3) dCCPI/dt=[ksyn−CLb,CPI⋅CCPI−CLR,CPI⋅CCPI]⋅1/VCPI (4) dCCPI/dt=[ksyn−CLb,CPI⋅CCPI/1+CRIF/KiCPI−CLR,CPI⋅CCPI]⋅1/VCPI (5) dUCPI/dt=CLR,CPI⋅CCPI where C CPI is its plasma concentration, U CPI is the CPI amount in urine, t is time, k syn is the zero‐order synthesis rate, Ki CPI is RIF transporter inhibition constant using CPI as a probe, V CPI is the volume of distribution of CPI and C RIF is RIF plasma concentration (linked to RIF model). […]

## C=C[C@@H]1C[C@]1(NC(=O)[C@@H]1C[C@@H](Oc2ncc(OC)c3ccc(Cl)cc23)CN1C(=O)[C@@H](NC(=O)OC(C)(C)C)C(C)(C)C)C(=O)NS(=O)(=O)C1CC1 [Asunaprevir]
OATP; inhibitor 200 mg, rosuvastatin 10 mg, ref (14)
  Fold Change in AUC of rosuvastatin: 1.41 fold

## CC[C@H]1OC(=O)[C@H](C)[C@@H](O[C@H]2C[C@@](C)(OC)[C@@H](O)[C@H](C)O2)[C@H](C)[C@@H](O[C@@H]2O[C@H](C)C[C@H](N(C)C)[C@H]2O)[C@](C)(OC)C[C@@H](C)C(=O)[C@H](C)[C@@H](O)[C@]1(C)O [Clarithromycin]
OATP; inhibitor 500 mg, rosuvastatin 0.025 mg, ref (15)
  Fold Change in AUC of rosuvastatin: 1.56 fold

## C=C[C@@H]1C[C@]1(NC(=O)[C@@H]1C[C@@H]2CN1C(=O)[C@H](C(C)(C)C)NC(=O)O[C@@H]1C[C@H]1CCCCCc1nc3ccc(OC)cc3nc1O2)C(=O)NS(=O)(=O)C1CC1.O [Grazoprevir]
OATP; inhibitor 200 mg, rosuvastatin 10 mg, ref (16)
  Fold Change in AUC of rosuvastatin: 1.59 fold

## CCC(C)n1ncn(-c2ccc(N3CCN(c4ccc(OCC5COC(Cn6cncn6)(c6ccc(Cl)cc6Cl)O5)cc4)CC3)cc2)c1=O (stereo not shown) [Itraconazole]
OATP; inhibitor 200 mg, rosuvastatin 0.025 mg, ref (15)
  Fold Change in AUC of rosuvastatin: 1.78 fold

## Cc1cnc(C(=O)N[C@H]2CCCCC/C=C\[C@@H]3C[C@@]3(C(=O)NS(=O)(=O)C3CC3)NC(=O)[C@@H]3C[C@@H](Oc4nc5ccccc5c5ccccc45)CN3C2=O)cn1 [Paritaprevir]
OATP; inhibitor 150 mg, rosuvastatin 10 mg, ref (17)
  Fold Change in AUC of rosuvastatin: 2.6 fold

## CC(C)c1nc(N(C)S(C)(=O)=O)nc(-c2ccc(F)cc2)c1/C=C/[C@@H](O)C[C@@H](O)CC(=O)O [RSV, rosuvastatin]
[1]; RIF 600 mg co-administered
  change in Cmax (fold increase) following RIF: 13.2 fold
[1]; from AUC with/without RIF
  range of estimated individual fT: 0.66–0.88
[1]
  mean fraction eliminated via transporters (fT): 0.79
[2]; RSV alone
  QRSV, population estimate (SE%): 45.3 (19) L/h
  V1RSV, population estimate (SE%): 430 (12) L
  V2RSV, population estimate (SE%): 865 (37) L
[2]; co-administered with RIF
  QRSV (RIF), population estimate (SE%): 5.03 (18) L/h
  V1RSV (RIF), population estimate (SE%): 2.98 (50) L
  V2RSV (RIF), population estimate (SE%): 128 (42) L
[2]; in vivo
  contribution of biliary clearance to elimination: 94%
  reduction of V1RSV in the presence of RIF: > 90%
[2]; male, human, in vivo, 5 mg
  CL renal: 141 mL/min
  CLb,RSV, population estimate (SE%): 124 (11) L/h
[2]; single 5-mg oral dose
  kaRSV, population estimate (SE%): 0.287 (9) h^−1

## COc1ccc2c(O[C@@H]3C[C@H]4C(=O)N[C@]5(C(=O)NS(=O)(=O)C6CC6)C[C@H]5/C=C\CCCCN(C)C(=O)[C@@H]4C3)cc(-c3nc(C(C)C)cs3)nc2c1C [Simeprevir]
OATP; inhibitor 150 mg, rosuvastatin 10 mg, ref (19)
  Fold Change in AUC of rosuvastatin: 2.8 fold

## COC[C@H]1C[C@@H](c2ncc(-c3ccc4c(c3)COc3cc5c(ccc6nc([C@@H]7CC[C@H](C)N7C(=O)[C@@H](NC(=O)OC)C(C)C)[nH]c65)cc3-4)[nH]2)N(C(=O)[C@H](NC(=O)OC)c2ccccc2)C1 [Velpatasvir]
OATP; inhibitor 100 mg, rosuvastatin 10 mg, ref (18)
  Fold Change in AUC of rosuvastatin: 2.69 fold

## coproporphyrin I [CPI]
[3]; basal conditions
  maximal contribution of biliary clearance to total clearance: > 85% and 88%
[3]; baseline
  VCPI, population estimate (SE%): 6.59 (12) L
[3]; endogenous CPI
  ksyn (zero-order synthesis rate), population estimate (SE%): 12.7 (6) nM/h
[3]; in the presence of RIF
  VCPI (RIF), population estimate (SE%): 3.4 (13) L
[3]; in vivo
  CLR,CPI (renal clearance), population estimate (SE%): 1.64 (6) L/h
  reduction of estimated VCPI in the presence of RIF: ~50%
[1]
  mean fraction eliminated via transporters (fT): 0.76

Source: PMC6175062, “Gaining Mechanistic Insight Into Coproporphyrin I as Endogenous Biomarker for OATP1B‐Mediated Drug–Drug Interactions Using Population Pharmacokinetic Modeling and Simulation” (Clinical Pharmacology and Therapeutics, 2018)
